Data published in article PMC8206213, “An L-2-hydroxyglutarate biosensor based on specific transcriptional regulator LhgR” (Nature Communications, 2021).
“And” between values parts separate entries of the source, which are not always exact repeats. Identical values can stand only once.

Key:
[1] = Dose-response of purified LHGFR for D-2-HG in buffer; assay type: binding
Procedure: Purified L-2-HG biosensors and different compounds were diluted by 50 mM Tris-HCl buffer (pH 7.4), mixed together in a black 96-well plate at a volume ratio of 3:1, and the fluorescence intensities were measured using an EnSight microplate reader (PerkinElmer, USA) with excitation at 430 nm, emission at 485 nm (mTFP) and 528 nm (Venus). The dose-response curves were fitted by OriginPro 2016 software (OriginLab) according to the following formula:1 R=Rmax+Rmin−Rmax/1+([L-2-HG]/Kd)^p where R, Rmin, and Rmax refer to the emission ratio of Venus to mTFP, ratio in the absence of L-2-HG, and ratio at saturation with L-2-HG, respectively. The [L-2-HG], Kd, and p refer to the L-2-HG concentration, apparent dissociation constant, and Hill slope, respectively. Emission spectra were recorded at 430 nm excitation, in steps of 2 nm. Excitation spectra were recorded using emission at 550 nm, excitation from 380 to 535 nm in steps of 2 nm.

[2] = Dose-response of LHGFR expressed in digitonin-permeabilized HEK293FT cells for L-2-HG; assay type: cell-based, human (HEK293FT cells)
Procedure: To characterize the sensitivity and specificity of LHGFR expressed in HEK293FT cells, cells were trypsinized 48 h following transfection and suspended in 1× Hank’s balanced salt solution supplemented with 20 mM HEPES. […] Digitonin at a concentration of 10 μM was used to induce cell permeabilization and deplete intracellular L-2-HG for in vivo response curves construction. Then, the fluorescence intensities were determined by a SpectraMax i3 fluorescence plate reader (Molecular Devices, USA) with excitation at 430 nm and emission at 485 nm (mTFP) and 528 nm (Venus). Basal L-2-HG concentration in HEK293FT cells under physiological conditions was determined by substituting the emission ratios of non-permeabilized HEK293FT cells into the calibrated in vivo response curves.

In the case of `O=C(O)CC[C@@H](O)C(=O)O` [D-2-HG], the “Emission ratio of 528/485” value ([1]; 2-HG concentration 0.01, Suppl. Fig. 9c) is reported as 1.387 and 1.378 and 1.399, the “Emission ratio of 528/485” value ([1]; 2-HG concentration 0.01, Suppl. Fig. 9d) is reported as 1.657 and 1.673 and 1.678 and the “Emission ratio of 528/485” value ([1]; 2-HG concentration 0.1, Suppl. Fig. 9c) is reported as 1.372 and 1.375 and 1.382. For the same molecule, the “Emission ratio of 528/485” value ([1]; 2-HG concentration 0.1, Suppl. Fig. 9d) was 1.659 and 1.671 and 1.687, the “Emission ratio of 528/485” value ([1]; 2-HG concentration 0.2, Suppl. Fig. 9c) was 1.374 and 1.387 and 1.391 and the “Emission ratio of 528/485” value ([1]; 2-HG concentration 0.2, Suppl. Fig. 9d) was 1.6456 and 1.673 and 1.682. The “Emission ratio of 528/485” value ([1]; 2-HG concentration 1, Suppl. Fig. 9c) was 1.374 and 1.373 and 1.392, the “Emission ratio of 528/485” value ([1]; 2-HG concentration 1, Suppl. Fig. 9d) was 1.662 and 1.681 and 1.683 and the “Emission ratio of 528/485” value ([1]; 2-HG concentration 2, Suppl. Fig. 9c) was 1.367 and 1.388 and 1.39. For the same molecule, the “Emission ratio of 528/485” value ([1]; 2-HG concentration 2, Suppl. Fig. 9d) was 1.647 and 1.673 and 1.676, the “Emission ratio of 528/485” value ([1]; 2-HG concentration 10, Suppl. Fig. 9c) was 1.374 and 1.398 and 1.395 and the “Emission ratio of 528/485” value ([1]; 2-HG concentration 10, Suppl. Fig. 9d) was 1.662 and 1.69 and 1.707. For the same molecule, the “Emission ratio of 528/485” value ([1]; 2-HG concentration 20, Suppl. Fig. 9c) was 1.362 and 1.378 and 1.389, the “Emission ratio of 528/485” value ([1]; 2-HG concentration 20, Suppl. Fig. 9d) was 1.665 and 1.705 and 1.723 and the “Emission ratio of 528/485” value ([1]; 2-HG concentration 100, Suppl. Fig. 9c) was 1.381 and 1.406 and 1.415. For the same molecule, the “Emission ratio of 528/485” value ([1]; 2-HG concentration 100, Suppl. Fig. 9d) was 1.815 and 1.829 and 1.846, the “Emission ratio of 528/485” value ([1]; 2-HG concentration 200, Suppl. Fig. 9c) was 1.404 and 1.432 and 1.433 and the “Emission ratio of 528/485” value ([1]; 2-HG concentration 200, Suppl. Fig. 9d) was 1.932 and 1.978 and 1.981. The “Emission ratio of 528/485” value ([1]; 2-HG concentration 1000, Suppl. Fig. 9c) was 1.525 and 1.561 and 1.565, the “Emission ratio of 528/485” value ([1]; 2-HG concentration 1000, Suppl. Fig. 9d) was 2.255 and 2.2953 and 2.327 and the “Emission ratio of 528/485” value ([1]; 2-HG concentration 2000, Suppl. Fig. 9c) was 1.698 and 1.693 and 1.687. The “Emission ratio of 528/485” value ([1]; 2-HG concentration 2000, Suppl. Fig. 9d) was 2.559 and 2.546 and 2.55.
With `O=C(O)CC[C@H](O)C(=O)O` [L-2-HG, L-2-Hydroxyglutarate] the Normalized emission ratio ([2]; Fig. 6c, L-2-HG concentration 0.01) was 0.9714 and 1.018 and 1.011, the Normalized emission ratio ([2]; Fig. 6c, L-2-HG concentration 0.1) was 1.002 (2×) and 0.9784 and the Normalized emission ratio ([2]; Fig. 6c, L-2-HG concentration 1) was 1.006 and 0.9618 and 1.048. The Normalized emission ratio ([2]; Fig. 6c, L-2-HG concentration 10) was 1.045 and 1.118 and 1.137, the Normalized emission ratio ([2]; Fig. 6c, L-2-HG concentration 20) was 1.133 and 1.12 and 1.163 and the Normalized emission ratio ([2]; Fig. 6c, L-2-HG concentration 100) was 1.245 and 1.312 and 1.322. For the same molecule, the Normalized emission ratio ([2]; Fig. 6c, L-2-HG concentration 200) was 1.303 and 1.3035 and 1.367, the Normalized emission ratio ([2]; Fig. 6c, L-2-HG concentration 1000) was 1.414 and 1.364 and 1.401 and the Normalized emission ratio ([2]; Fig. 6c, L-2-HG concentration 2000) was 1.387 and 1.439 and 1.425. The Normalized emission ratio ([2]; Fig. 6c, L-2-HG concentration 10000) was 1.443 and 1.404 and 1.415, the Normalized emission ratio ([2]; L-2-HG concentration 0.01, Supplementary Fig. 17c) was 0.9984 and 1.014 and 0.9873 and the Normalized emission ratio ([2]; L-2-HG concentration 0.01, Supplementary Fig. 18c) was 0.9865 and 0.9714 and 1.042. The Normalized emission ratio ([2]; L-2-HG concentration 0.1, Supplementary Fig. 17c) was 1 and 1.004 and 1.02, the Normalized emission ratio ([2]; L-2-HG concentration 0.1, Supplementary Fig. 18c) was 0.9909 and 1.037 and 0.9822 and the Normalized emission ratio ([2]; L-2-HG concentration 1, Supplementary Fig. 17c) was 1.007 and 1.056 and 1.0486. The Normalized emission ratio ([2]; L-2-HG concentration 1, Supplementary Fig. 18c) was 0.9662 and 0.9722 and 0.9935, the Normalized emission ratio ([2]; L-2-HG concentration 10, Supplementary Fig. 17c) was 1.22 and 1.297 and 1.235 and the Normalized emission ratio ([2]; L-2-HG concentration 10, Supplementary Fig. 18c) was 0.9752 and 1.056 and 0.9703. For the same molecule, the Normalized emission ratio ([2]; L-2-HG concentration 20, Supplementary Fig. 17c) was 1.319 and 1.273 and 1.318, the Normalized emission ratio ([2]; L-2-HG concentration 20, Supplementary Fig. 18c) was 1.003 and 1.067 and 0.9797 and the Normalized emission ratio ([2]; L-2-HG concentration 100, Supplementary Fig. 17c) was 1.392 and 1.387 and 1.431. The Normalized emission ratio ([2]; L-2-HG concentration 100, Supplementary Fig. 18c) was 1.048 and 0.9825 and 0.9723, the Normalized emission ratio ([2]; L-2-HG concentration 200, Supplementary Fig. 17c) was 1.3826 and 1.447 and 1.484 and the Normalized emission ratio ([2]; L-2-HG concentration 200, Supplementary Fig. 18c) was 0.9116 and 1.038 and 1.008. The Normalized emission ratio ([2]; L-2-HG concentration 1000, Supplementary Fig. 17c) was 1.434 and 1.459 and 1.447, the Normalized emission ratio ([2]; L-2-HG concentration 1000, Supplementary Fig. 18c) was 0.9678 and 0.9844 and 0.9663 and the Normalized emission ratio ([2]; L-2-HG concentration 2000, Supplementary Fig. 17c) was 1.455 and 1.475 and 1.401. For the same molecule, the Normalized emission ratio ([2]; L-2-HG concentration 2000, Supplementary Fig. 18c) was 0.9838 and 0.9876 and 0.9675, the Normalized emission ratio ([2]; L-2-HG concentration 10000, Supplementary Fig. 17c) was 1.475 and 1.44 and 1.4468 and the Normalized emission ratio ([2]; L-2-HG concentration 10000, Supplementary Fig. 18c) was 0.9794 and 1.103 and 1.106.
